The numbers were not newly measured in patent US20260327216A1, “SUBSTITUTED OXAZOLONE COMPOUND FOR DECREASING LEVELS OF IKZF I-4 PROTEINS” (BRISTOL-MYERS SQUIBB COMPANY, priority 2023, published 2026), which cites them from elsewhere.

One data set relates to solid tumors. The following applies: patients with solid tumors / advanced malignancies; cited from earlier work.
Another data set concerns T and NK cell functions. To be noted: preclinical and clinical studies; cited from earlier work.
The subject of data set [1] is highly immunogenic syngeneic tumors. To be noted: engineered mouse models; Geng et al., 2022; cited from earlier work.

The structures appear in SMILES notation.

Regarding `Nc1cccc2c1C(=O)N(C1CCC(=O)NC1=O)C2=O` (centres unmarked) [pomalidomide], the “clinical response in patients with solid tumors” value (shortened to “clinical response in patients”) in the data set with solid tumors is reported as “modest responses of stable disease”. Regarding `Cc1nc2cccc(N)c2c(=O)n1C1CCC(=O)NC1=O` (centres unmarked) [avadomide], in the data set on solid tumors, the “clinical response in patients” value is reported as “modest responses of stable disease”. `Nc1cccc2c1CN(C1CCC(=O)NC1=O)C2=O` (centres unmarked) [lenalidomide]: in the data set with solid tumors, the “clinical response in patients” value is on record as “modest responses of stable disease”. Further, the “effect on T and NK cell functions” value with T and NK cell functions was “augment T and NK cell functions”. Moreover, in data set [1], the “antitumor immune responses against highly immunogenic syngeneic tumors” value was “modestly increase antitumor immune responses”.
